Results on two compounds are retold here after US20260344673A1, “A SOLID FORM FOR PREPARATION OF AN AQUEOUS DISPERSION, AQUEOUS DISPERSION, STABLE CONCENTRATE, COMBINED AQUEOUS DISPERSION, AND USES THEREOF” (priority 2022, published 2026).

Each structure is given as a SMILES string.

The test system of one experiment is Venturia inaegualis. Description: Kirby-Bauer disk diffusion test, Venturia inaequalis. Conditions: Venturia inaegualis. The procedure:
(§1) The microbiological tests were carried out by applying Kirby-Bauer Disk Diffusion Susceptibility Test Protocol for antimicrobial activity. It is based on the formation of a concentration gradient in the growth medium during the diffusion of the active substance from the antibiogram disc (Kirby-Bauer method).
(§2) The performance of the embodiments of the present inventions and their mixtures enriched with millbase (MFA) was analysed against the appropriate reference substance, i.e., a commercial product containing the analogue active substance with the same concentration. The prepared solutions were applied on the paper antibiograms. Then the soaked antibiograms were placed on the Petri Dishes (dish diameter 90 mm) with the growth medium for fungal pathogens V8. Composition of V8: agar, calcium carbonate and multi-vegetable juice. 3 fragments of mycelium of the tested pathogen (5×5 mm) were transplanted onto the prepared medium. As a result, the zones where the fungal growth was inhibited have been measured and compared respectively with the control sample and the analogue active substance sample.
(§3) Assessment was carried out by determining the infested area of the Petri dish in %. These percentages have been converted into efficacy (W) according to Abbot's formula as follows: W=(1−α/β)×100 • where: • α—corresponds to the mycelium/bacterial growth of each tested sample [%], • β—corresponds to the mycelium/bacterial growth in control sample [%].
(§4) In order to estimate if the combined action effect with the commercial fungicide, the W parameter of the mixture was compared with W parameter for particular commercial fungicide solo. Where W=0 the efficacy of the control sample (whole Petri dish covered with mycelium), and W=100 is when no mycelium growth observed.

In the next experiment the test system is Septoria nodorum (1291). The experiment can be described thus: Kirby-Bauer disk diffusion test, Septoria nodorum (1291). The procedure:
as §2, §3, §4
Background: A growth-free zone around the sample is the usual read-out of agar diffusion tests.

The subject of experiment [1] is Colletotrichum gloeosporioides. The experiment can be described thus: Kirby-Bauer disk diffusion test, Colletotrichum gloeosporioides. The note with it: Colletotrichum gloeosporioides. The procedure: as §1, §2, §3, §4
The next experiment has as its system Sclerotinia sclerotiorum. The experiment can be described thus: Kirby-Bauer disk diffusion test, Sclerotinia sclerotiorum. The procedure: as §2, §3, §4
In another experiment the test system is Fusarium oxysporum. Description: Kirby-Bauer disk diffusion test, Fusarium oxysporum. Conditions: Fusarium oxysporum. The procedure:
as §1, §2, §3, §4

For another experiment, the system named is Fusarium equiseti. The experiment can be described thus: Kirby-Bauer disk diffusion test, Fusarium equiseti. The procedure:
as §2, §3, §4

For another experiment, the system named is Botrytis cinerea. The experiment can be described thus: Kirby-Bauer disk diffusion test, Botrytis cinerea. The procedure:
as §2, §3, §4

The test system of another experiment is Phytophthora megasperma. Description: Kirby-Bauer disk diffusion test, Phytophthora megasperma. Conditions: Phytophthora megasperma. The procedure:
as §1, §2, §3, §4

For the next experiment, the system named is Septoria tritici. Description: Kirby-Bauer disk diffusion test, Septoria tritici. The procedure:
as §2, §3, §4

In the next experiment the test system is Verticillium longisporum. The experiment can be described thus: Kirby-Bauer disk diffusion test, Verticillium longisporum. The procedure: as §2, §3, §4
In the next experiment the test system is Rhizoctonia solani. Description: Kirby-Bauer disk diffusion test, Rhizoctonia solani. The procedure:
as §2, §3, §4

The test system of experiment [2] is Alternaria infectoria/alternata. Description: Kirby-Bauer disk diffusion test, Alternaria infectoria/alternata. The procedure: as §2, §3, §4
The test system of a further experiment is Monilinia fructigena. Description: Kirby-Bauer disk diffusion test, Monilinia fructigena. The procedure: as §2, §3, §4
Another experiment concerns Phytophthora cactorum. The experiment can be described thus: Kirby-Bauer disk diffusion test, Phytophthora cactorum. The arrangement: % mycelium growth relative to the control: concentration or dose not given beside the values. The procedure: as §2, §3, §4
The next experiment deals with Trichoderma harzianum. Description: Kirby-Bauer disk diffusion test, Trichoderma harzianum. The procedure: as §2, §3, §4

Consider `N#Cc1c[nH]cc1-c1cccc2c1OC(F)(F)O2` [Fludioxonil (250)], for which the “% mycelium growth relative to the control” value with Venturia inaegualis (V8 medium) was found to be 38%; in the experiment with Septoria nodorum (1291) (V8 medium), 72%; in experiment [1] (V8 medium), 81%; in the experiment with Sclerotinia sclerotiorum (V8 medium), 0%; with Fusarium oxysporum (V8 medium), 86%; in the experiment with Fusarium graminearum (V8 medium), 73%. The “% mycelium growth relative to the control” value in the experiment with Fusarium equiseti (V8 medium) was 81%; with Botrytis cinerea (V8 medium), 0%; in the experiment with Phytophthora megasperma (V8 medium) it was 100%; in the experiment on Septoria tritici (V8 medium) it was 42%; with Verticillium longisporum (V8 medium) it was 87%; in the experiment with Rhizoctonia solani (V8 medium), 55%. In addition, the “% mycelium growth relative to the control” value in [2] (V8 medium) is 0%; in the experiment with Monilinia fructigena (V8 medium), 61%; in the experiment on Phytophthora cactorum (V8 medium), 100%. The mycelium growth with Venturia inaegualis (V8 medium, control 2.9 cm) came to 1.1 cm; in the experiment on Septoria nodorum (1291) (V8 medium, control 5.4 cm), 3.9 cm; in experiment [1] (V8 medium, control 5.4 cm), 4.4 cm; in the experiment with Sclerotinia sclerotiorum (V8 medium, control 8.6 cm), 0 cm; in the experiment with Fusarium oxysporum (V8 medium, control 8.6 cm) it was 7.4 cm; with Fusarium graminearum (V8 medium, control 8.6 cm), 6.3 cm. The mycelium growth in the experiment with Fusarium equiseti (V8 medium, control 8.6 cm) is given as 7 cm; in the experiment on Botrytis cinerea (V8 medium, control 8.6 cm), 0 cm; in the experiment on Phytophthora megasperma (V8 medium, control 5.4 cm (8.6 cm in Table 25)) it was 5.4 cm; in the experiment on Septoria tritici (V8 medium, control 1.9 cm), 0.8 cm; in the experiment with Verticillium longisporum (V8 medium, control 3.9 cm), 3.4 cm; in the experiment on Rhizoctonia solani (V8 medium, control 8.6 cm), 4.7 cm. The mycelium growth in [2] (V8 medium, control 8.6 cm) worked out at 0 cm; with Monilinia fructigena (V8 medium, control 5.4 cm) it was 3.3 cm; in the experiment with Phytophthora cactorum (V8 medium, control 5.4 cm) it was 5.4 cm. The “EFFICACY W (Abbot)” value was determined as 62 with Venturia inaegualis (control W=0, no growth W=100); 28 in the experiment with Septoria nodorum (1291) (control W=0, no growth W=100); 19 in experiment [1] (control W=0, no growth W=100); 100 in the experiment on Sclerotinia sclerotiorum (control W=0, no growth W=100); 14 in the experiment with Fusarium oxysporum (control W=0, no growth W=100); 27 in the experiment on Fusarium graminearum (control W=0, no growth W=100). In addition, the “EFFICACY W (Abbot)” value is given as 19 in the experiment on Fusarium equiseti (control W=0, no growth W=100); 100 with Botrytis cinerea (control W=0, no growth W=100); 0 in the experiment with Phytophthora megasperma (control W=0, no growth W=100); 58 in the experiment on Septoria tritici (control W=0, no growth W=100); 13 with Verticillium longisporum (control W=0, no growth W=100); 45 in the experiment on Rhizoctonia solani (control W=0, no growth W=100). Further, the “EFFICACY W (Abbot)” value in experiment [2] (control W=0, no growth W=100) was determined as 100; with Monilinia fructigena (control W=0, no growth W=100), 39; in the experiment on Phytophthora cactorum (control W=0, no growth W=100), 0.
`COc1cc(C)c(C(=O)c2c(OC)ccc(Br)c2C)c(OC)c1OC` [Metrafenone (150)]: in the experiment on Trichoderma harzianum (V8 medium), the “% mycelium growth relative to the control” value was found to be 80%. Also, the mycelium growth in the experiment on Trichoderma harzianum (V8 medium, control 8.6 cm) turned out to be 6.9 cm. The “EFFICACY W (Abbot)” value in the experiment with Trichoderma harzianum (control W=0, no growth W=100) is reported as 20.
